From patent US9822103B2, “Inhibitors of lysine methyl transferase” (priority 2013, dated 2017)

Molecular target: recombinant EZH2-641F complex (EZH2 Y641F/EED/SUZ12/RbAp48/AEBP2) (Homo sapiens (Human), UniProt Q15910, Y641F)
Assay: EZH2 Histone Methyl Transferase Assay (scintillation proximity assay)
Assay type: biochemical
Details: 350 nM histone peptide substrate, 500 nM 3H-SAM, 3 hours room temperature
Method in brief: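 Radiometric SPA with EZH2 Y641F/EED/SUZ12/RbAp48/AEBP2 complex (5 nM pure or 15 nM in-house), 350 nM biotinylated K(Me2) histone peptide and 500 nM [3H]-SAM in Tris pH 9.0, 3 h at room temperature. Compounds were tested at eleven concentrations; EC50 came from non-linear regression.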

Chain of recombinant EZH2-641F complex (EZH2 Y641F/EED/SUZ12/RbAp48/AEBP2) (Q15910 whole entry Y641F): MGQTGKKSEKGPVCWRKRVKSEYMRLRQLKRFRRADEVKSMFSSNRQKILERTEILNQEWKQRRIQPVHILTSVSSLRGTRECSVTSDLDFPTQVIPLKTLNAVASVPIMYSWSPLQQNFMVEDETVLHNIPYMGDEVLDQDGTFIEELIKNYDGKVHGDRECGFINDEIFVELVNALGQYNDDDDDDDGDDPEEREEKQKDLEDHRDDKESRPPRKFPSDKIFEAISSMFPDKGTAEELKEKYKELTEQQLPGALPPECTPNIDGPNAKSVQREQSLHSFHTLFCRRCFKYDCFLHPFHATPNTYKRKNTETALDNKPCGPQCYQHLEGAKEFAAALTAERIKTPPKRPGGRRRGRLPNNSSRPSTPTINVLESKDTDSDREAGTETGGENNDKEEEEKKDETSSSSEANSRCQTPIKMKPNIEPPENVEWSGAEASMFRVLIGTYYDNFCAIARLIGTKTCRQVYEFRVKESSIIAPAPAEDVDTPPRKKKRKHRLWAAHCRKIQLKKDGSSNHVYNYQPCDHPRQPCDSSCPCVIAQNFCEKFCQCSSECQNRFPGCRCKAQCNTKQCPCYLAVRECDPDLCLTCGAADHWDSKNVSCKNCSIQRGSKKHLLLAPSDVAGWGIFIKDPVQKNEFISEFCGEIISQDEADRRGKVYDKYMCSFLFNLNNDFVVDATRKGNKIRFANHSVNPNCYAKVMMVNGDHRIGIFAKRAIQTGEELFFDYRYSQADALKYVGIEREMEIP
Chain of recombinant EZH2-641F complex (EZH2 Y641F/EED/SUZ12/RbAp48/AEBP2) (O75530 whole entry partner): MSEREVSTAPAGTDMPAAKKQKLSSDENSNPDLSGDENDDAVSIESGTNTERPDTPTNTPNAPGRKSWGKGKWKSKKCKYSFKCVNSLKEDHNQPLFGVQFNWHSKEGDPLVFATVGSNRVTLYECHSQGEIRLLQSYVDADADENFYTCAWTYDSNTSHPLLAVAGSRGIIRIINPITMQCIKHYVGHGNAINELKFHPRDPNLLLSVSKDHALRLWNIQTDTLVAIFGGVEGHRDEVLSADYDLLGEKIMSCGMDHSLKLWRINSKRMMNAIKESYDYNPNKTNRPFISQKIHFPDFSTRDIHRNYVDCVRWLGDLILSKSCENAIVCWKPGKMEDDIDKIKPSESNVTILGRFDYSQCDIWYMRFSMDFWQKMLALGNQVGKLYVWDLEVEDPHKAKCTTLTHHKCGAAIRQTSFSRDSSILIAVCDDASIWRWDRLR
Chain of recombinant EZH2-641F complex (EZH2 Y641F/EED/SUZ12/RbAp48/AEBP2) (Q15022 whole entry partner): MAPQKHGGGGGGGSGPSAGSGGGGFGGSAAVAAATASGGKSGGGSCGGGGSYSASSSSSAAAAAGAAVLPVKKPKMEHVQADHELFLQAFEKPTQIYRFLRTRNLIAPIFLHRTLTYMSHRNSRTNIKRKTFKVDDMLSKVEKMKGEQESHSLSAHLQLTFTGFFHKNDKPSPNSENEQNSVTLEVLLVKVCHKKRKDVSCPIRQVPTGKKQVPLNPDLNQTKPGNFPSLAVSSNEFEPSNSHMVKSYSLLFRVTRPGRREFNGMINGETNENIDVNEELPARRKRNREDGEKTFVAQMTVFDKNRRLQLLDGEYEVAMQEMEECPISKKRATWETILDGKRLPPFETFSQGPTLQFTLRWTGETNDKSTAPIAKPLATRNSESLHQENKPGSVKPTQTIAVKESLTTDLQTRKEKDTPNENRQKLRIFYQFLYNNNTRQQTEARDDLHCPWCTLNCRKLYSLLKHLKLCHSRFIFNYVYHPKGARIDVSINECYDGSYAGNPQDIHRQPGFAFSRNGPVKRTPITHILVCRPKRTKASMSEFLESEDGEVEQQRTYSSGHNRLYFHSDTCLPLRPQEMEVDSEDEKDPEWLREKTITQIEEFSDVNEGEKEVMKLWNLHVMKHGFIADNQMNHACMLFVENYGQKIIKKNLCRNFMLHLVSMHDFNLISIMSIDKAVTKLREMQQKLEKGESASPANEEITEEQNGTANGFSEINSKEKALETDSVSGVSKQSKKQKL
Chain of recombinant EZH2-641F complex (EZH2 Y641F/EED/SUZ12/RbAp48/AEBP2) (Q09028 whole entry partner): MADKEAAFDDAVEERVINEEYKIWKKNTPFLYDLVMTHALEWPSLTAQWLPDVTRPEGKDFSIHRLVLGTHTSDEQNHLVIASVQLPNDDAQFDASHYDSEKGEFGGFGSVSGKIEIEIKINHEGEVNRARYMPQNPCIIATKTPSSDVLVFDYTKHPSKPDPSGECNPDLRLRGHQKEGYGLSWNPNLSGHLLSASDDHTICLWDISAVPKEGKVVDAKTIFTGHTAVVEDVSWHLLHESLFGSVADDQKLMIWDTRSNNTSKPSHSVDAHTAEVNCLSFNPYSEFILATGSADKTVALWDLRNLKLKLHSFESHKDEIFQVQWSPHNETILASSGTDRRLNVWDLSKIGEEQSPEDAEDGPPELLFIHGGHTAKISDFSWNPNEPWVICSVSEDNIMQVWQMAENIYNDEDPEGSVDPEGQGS
Chain of recombinant EZH2-641F complex (EZH2 Y641F/EED/SUZ12/RbAp48/AEBP2) (Q6ZN18 whole entry partner): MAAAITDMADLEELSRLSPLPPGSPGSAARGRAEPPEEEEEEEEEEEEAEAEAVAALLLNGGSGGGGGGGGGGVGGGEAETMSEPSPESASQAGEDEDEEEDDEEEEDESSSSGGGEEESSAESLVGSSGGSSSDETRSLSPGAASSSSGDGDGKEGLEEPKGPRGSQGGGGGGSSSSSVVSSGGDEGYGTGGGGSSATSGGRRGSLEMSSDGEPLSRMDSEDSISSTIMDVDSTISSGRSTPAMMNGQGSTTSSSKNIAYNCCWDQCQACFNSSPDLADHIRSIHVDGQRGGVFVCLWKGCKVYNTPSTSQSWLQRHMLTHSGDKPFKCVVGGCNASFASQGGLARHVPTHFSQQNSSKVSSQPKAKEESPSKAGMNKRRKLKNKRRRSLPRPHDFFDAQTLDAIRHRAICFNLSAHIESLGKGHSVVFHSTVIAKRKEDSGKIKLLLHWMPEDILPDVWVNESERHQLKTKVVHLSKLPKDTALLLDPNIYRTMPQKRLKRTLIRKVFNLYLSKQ

SMILES | IC50 [nM]
Cc1cc(C)c(CNC(=O)c2cc(C)c3c(c2)CC(C)(C)O3)c(=O)[nH]1 [Example 6, N-((4,6-Dimethyl-2-oxo-1,2-dihydropyridin-3-yl)methyl)-2,2,7-trimethyl-2,3-dihydrobenzofuran-5-carboxamide] | > 1000
CC1=C(C)Cc2cc(C(=O)NCc3c(C)cc(C)[nH]c3=O)cc(Br)c2OC1 [Example 81, 9-Bromo-N-((4,6-dimethyl-2-oxo-1,2-dihydropyridin-3-yl)methyl)-3,4-dimethyl-2,5-dihydrobenzo[b]oxepine-7-carboxamide] | > 1000
Cc1cc(C)c(CNC(=O)c2ccc3c(c2)C=CCC(C)O3)c(=O)[nH]1 (stereo not shown) [Example 47, N-((4,6-Dimethyl-2-oxo-1,2-dihydropyridin-3-yl)methyl)-2-methyl-2,3-dihydrobenzo[b]oxepine-7-carboxamide] | > 1000
Cc1cc(C)c(CNC(=O)c2ccc3c(c2)CC(C)(C)O3)c(=O)[nH]1 [Example 2, N-((4,6-Dimethyl-2-oxo-1,2-dihydropyridin-3-yl)methyl)-2,2-dimethyl-2,3-dihydrobenzofuran-5-carboxamide] | > 1000
Cc1cc(C)c(CNC(=O)c2cc(C)c3c(c2C)CC(C)(C)O3)c(=O)[nH]1 [Example 9, N-((4,6-Dimethyl-2-oxo-1,2-dihydropyridin-3-yl)methyl)-2,2,4,7-tetramethyl-2,3-dihydrobenzofuran-5-carboxamide] | > 1000
Cc1cc(C)c(CNC(=O)c2cc(Br)c3c(c2)C2(CCCC2)CO3)c(=O)[nH]1 [Example 75, 7-Bromo-N-((4,6-dimethyl-2-oxo-1,2-dihydropyridin-3-yl)methyl)-2H-spiro[benzofuran-3,1′-cyclopentane]-5-carboxamide] | > 1000
Cc1cc(C)c(CNC(=O)c2cc(Br)c3c(c2)[C@@H]2CCC[C@]2(C)O3)c(=O)[nH]1 (racemic) [Example 64, rac-(3aS,8bS)-5-Bromo-N-((4,6-dimethyl-2-oxo-1,2-dihydropyridin-3-yl)methyl)-3a-methyl-2,3,3a,8b-tetrahydro-1H-cyclopenta[b]benzofuran-7-carboxamide] | > 1000
Cc1cc(C)c(CNC(=O)c2cc(Cl)c3c(c2)CC(C)(C)O3)c(=O)[nH]1 [Example 3, 7-Chloro-N-((4,6-dimethyl-2-oxo-1,2-dihydropyridin-3-yl)methyl)-2,2-dimethyl-2,3-dihydrobenzofuran-5-carboxamide] | > 1000
Cc1cc(C)c(CNC(=O)c2cc(-c3ccc(CN4CCOCC4)cc3)c3c(c2)C(C)CO3)c(=O)[nH]1 (stereo not shown) [Example 28, N-((4,6-Dimethyl-2-oxo-1,2-dihydropyridin-3-yl)methyl)-3-methyl-7-(4-(morpholinomethyl)phenyl)-2,3-dihydrobenzofuran-5-carboxamide] | > 1000
Cc1cc(C)c(CNC(=O)c2ccc3c(c2)CCCC(C)O3)c(=O)[nH]1 (stereo not shown) [Example 48, N-((4,6-Dimethyl-2-oxo-1,2-dihydropyridin-3-yl)methyl)-2-methyl-2,3,4,5-tetrahydrobenzo[b]oxepine-7-carboxamide] | > 1000
Cc1cc(C)c(CNC(=O)c2cc3c(c(-c4ccc(N5CCNCC5)nc4)c2)OCC3)c(=O)[nH]1 [Example 38, N-((4,6-Dimethyl-2-oxo-1,2-dihydropyridin-3-yl)methyl)-7-(6-(piperazin-1-yl)pyridin-3-yl)-2,3-dihydrobenzofuran-5-carboxamide] | > 1000
CCC1COc2cc(C(=O)NCc3c(C)cc(C)[nH]c3=O)cc(Br)c2O1 (stereo not shown) [Example 91, 8-Bromo-N-((4,6-dimethyl-2-oxo-1,2-dihydropyridin-3-yl)methyl)-2-ethyl-2,3-dihydrobenzo[b][1,4]dioxine-6-carboxamide] | > 1000
Cc1cc(C)c(CNC(=O)c2cc(Br)c3c(c2)CCC(C)CO3)c(=O)[nH]1 (stereo not shown) [Example 53, 9-Bromo-N-((4,6-dimethyl-2-oxo-1,2-dihydropyridin-3-yl)methyl)-3-methyl-2,3,4,5-tetrahydrobenzo[b]oxepine-7-carboxamide] | > 1000
C=CC1(C)Cc2cc(C(=O)NCc3c(C)cc(C)[nH]c3=O)cc(Br)c2O1 (stereo not shown) [Example 57, 7-Bromo-N-((4,6-dimethyl-2-oxo-1,2-dihydropyridin-3-yl)methyl)-2-methyl-2-vinyl-2,3-dihydrobenzofuran-5-carboxamide] | > 1000
COc1ccc(-c2cc(C(=O)NCc3c(C)cc(C)[nH]c3=O)cc3c2OCC(C)CC3)cn1 (stereo not shown) [Example 54, N-((4,6-dimethyl-2-oxo-1,2-dihydropyridin-3-yl)methyl)-9-(6-methoxypyridin-3-yl)-3-methyl-2,3,4,5-tetrahydrobenzo[b]oxepine-7-carboxamide] | > 1000
COc1ccc(-c2cc(C(=O)NCc3c(C)cc(C)[nH]c3=O)c(C)c3c2OC(C)(C)C3)cn1 [Example 25, N-((4,6-Dimethyl-2-oxo-1,2-dihydropyridin-3-yl)methyl)-7-(6-methoxypyridin-3-yl)-2,2,4-trimethyl-2,3-dihydrobenzofuran-5-carboxamide] | 500 to 1000
Cc1cc(C)c(CNC(=O)c2cc3c(c(-c4ccc(CN5CCOCC5)cc4)c2)OC(C)C3)c(=O)[nH]1 (stereo not shown) [Example 35, N-((4,6-Dimethyl-2-oxo-1,2-dihydropyridin-3-yl)methyl)-2-methyl-7-(4-(morpholinomethyl)phenyl)-2,3-dihydrobenzofuran-5-carboxamide] | > 1000

More lines, now with the values ahead:

IC50 [nM] | SMILES
< 500 | Cc1cc(C)c(CNC(=O)c2cc3c(c(-c4ccc(N5CCNCC5)cc4)c2)OC(C)(C)C3)c(=O)[nH]1 [Example 18, N-((4,6-Dimethyl-2-oxo-1,2-dihydropyridin-3-yl)methyl)-2,2-dimethyl-7-(4-(piperazin-1-yl)phenyl)-2,3-dihydrobenzofuran-5-carboxamide]
< 500 | Cc1cc(C)c(CNC(=O)c2cc(-c3ccc(N4CCNCC4)nc3)c3c(c2)[C@@H]2CCC[C@]2(C)O3)c(=O)[nH]1 (racemic) [Example 65, rac-(3aS,8bS)—N-((4,6-Dimethyl-2-oxo-1,2-dihydropyridin-3-yl)methyl)-3a-methyl-5-(6-(piperazin-1-yl)pyridin-3-yl)-2,3,3a,8b-tetrahydro-1H-cyclopenta[b]benzofuran-7-carboxamide]
< 500 | Cc1cc(C)c(CNC(=O)c2cc3c(c(-c4cnc(N5CCNCC5)nc4)c2)OC(C)(C)C3)c(=O)[nH]1 [Example 20, N-((4,6-Dimethyl-2-oxo-1,2-dihydropyridin-3-yl)methyl)-2,2-dimethyl-7-(2-(piperazin-1-yl)pyrimidin-5-yl)-2,3-dihydrobenzofuran-5-carboxamide]
< 500 | Cc1cc(C)c(CNC(=O)c2cc3c(c(-c4ccc(N5CCNCC5)nc4)c2)OC(C)(C)C3)c(=O)[nH]1 [Example 11, N-((4,6-Dimethyl-2-oxo-1,2-dihydropyridin-3-yl)methyl)-2,2-dimethyl-7-(6-(piperazin-1-yl)pyridin-3-yl)-2,3-dihydrobenzofuran-5-carboxamide]
500 to 1000 | COc1ccc(-c2cc(C(=O)NCc3c(C)cc(C)[nH]c3=O)cc3c2OC(C)(C)C3)cn1 [Example 14, N-((4,6-Dimethyl-2-oxo-1,2-dihydropyridin-3-yl)methyl)-7-(6-methoxypyridin-3-yl)-2,2-dimethyl-2,3-dihydrobenzofuran-5-carboxamide]
< 500 | Cc1cc(C)c(CNC(=O)c2cc3c(c(-c4ccc(N5CCNCC5)nc4)c2)OC2(CCCC2)C3)c(=O)[nH]1 [Example 72, N-((4,6-Dimethyl-2-oxo-1,2-dihydropyridin-3-yl)methyl)-7-(6-(piperazin-1-yl)pyridin-3-yl)-3H-spiro[benzofuran-2,1′-cyclopentane]-5-carboxamide]
< 500 | CCCc1cc(C)[nH]c(=O)c1CNC(=O)c1cc2c(c(-c3ccc(N4CCN(C(C)C)CC4)nc3)c1)OC(C)(C(C)C)C2 (stereo not shown) [Example 93, 2-Isopropyl-7-(6-(4-isopropylpiperazin-1-yl)pyridin-3-yl)-2-methyl-N-((6-methyl-2-oxo-4-propyl-1,2-dihydropyridin-3-yl)methyl)-2,3-dihydrobenzofuran-5-carboxamide]
500 to 1000 | Cc1cc(C)c(CNC(=O)c2cc(-c3ccc(CN4CCCCC4)cc3)c3c(c2)[C@@H]2CCC[C@]2(C)O3)c(=O)[nH]1 (racemic) [Example 67, rac-(3aS,8bS)—N-((4,6-Dimethyl-2-oxo-1,2-dihydropyridin-3-yl)methyl)-3a-methyl-5-(4-(piperidin-1-ylmethyl)phenyl)-2,3,3a,8b-tetrahydro-1H-cyclopenta[b]benzofuran-7-carboxamide]
